Source: patent US7825134B2, “Amelioration of cataracts, macular degeneration and other ophthalmic diseases” (Othera Holding, Inc., priority 2003, dated 2010)
“Also recorded” adds a separate entry of the source. Counter-ions that a name gives are not always drawn.

Columns and labels:
[1] = Aqueous solubility at room temperature; assay type: physicochemical; details: thermodynamic from solid
Excerpt: It may be preferred that at least 0.1% solubility is needed for an eye drop, even for a suspension formulation. Completely water-insoluble compounds may not be effective. Esters that are soluble in water (>0.1% weight by volume) are preferred. Esters with less than 0.1% solubility may be used in the form of suspensions or ointments or other formulations. […]

[2] = Identification of metabolites of Compound 1 in rabbit aqueous humor (GC/MS); assay type: in vivo; details: GC/MS of rabbit aqueous humor after topical dosing
Method: Aqueous humor samples, from the in vivo rabbit study described in Example 16 were identified by GC/MS for the presence of compound 1 and its metabolites, tempol-H and carboxylic acid (R1COOH), formed by hydrolysis of compound 1 by ocular esterases. Both the metabolites were observed but not Compound 1.
A sample of aqueous humor was freeze dried in a 10 mL amber colored glass vial containing a tiny magnetic bar. To this was added 1 mL of methylene chloride and the solution was stirred for two minutes and allowed to stand for five minutes. A 3 μL aliquot of the methylene chloride layer was injected into the GC column. The cyclopropanecarboxylic acid was detected by a mass spectrometer detector at 13.02 (retention time) with m/z=85 (GC model […] series II (both made by HP)). Agilent DB-5 column 25 m length, 0.2 mm diameter was used. Carrier gas He at 22 cm/sec. Inlet temperature was 250° C., detector 280° C. For every injection, the temperature was held at 35° C. for 5 minutes, then was increased to 240° C. at 10° C./min, and was held at 240° C. for 3 minutes. Splitless injection was used.

[3] = Pharmacokinetics and ocular tissue distribution of total radioactivity after single topical dose; assay type: in vivo, New Zealand White (Harlan) rabbits
Method: Pharmacokinetics, Ocular Tissue Distribution, and Urinary Excretion of Total Radioactivity Following Single Topical Dose Administration of Compound 1 in Rabbits. The pharmacokinetics, ocular tissue distribution and urinary excretion of total radioactivity following a single topical dose administration of the tritiated hydrochloride of Compound 1 in rabbits was evaluated. Eighteen male New Zealand White (Harlan) rabbits, age 3-6 months, weight 2.1 to 3.0 kg were utilized.
Experimental Design: The experimental design was a randomized, single-treatment study in one group of rabbits administered a single topical application of [^3H]Compound 1-HCl into both eyes. The group consisted of 6 subgroups of 3 animals. At six specified times (0.5, 1, 2, 4, 8 and 24 hours) post-dose, three animals per subgroup were euthanized and terminal samples collected. Animals designated to the 24 hour post-dose subgroup were placed in metabolism cages and urine was collected from 0-12 and 12-24 hours post-dose. Terminal blood was collected by cardiac puncture technique. From each eye, the following ocular tissues were harvested: aqueous humor; vitreous humor; lens; and cornea. Total radioactivity was determined in all samples.
Animals received a single topical ocular dose in each eye, right (OD) followed by left (OS). While slightly pulling away the lower eyelid from the globe, the dose was accurately pipetted onto the cornea and allowed to collect in the lower conjunctival sac. The eyelids were gently held shut for 1 minute after drug instillation and then carefully released.
Data analysis and statistical evaluation: Counts per minute for all assayed samples were converted to disintegrations per minute (DPM) using a Beckman LS6000 counter. Following appropriate background subtraction, DPM values were converted to concentrations (DPM per ml or g). Average DPM per ml or g values were calculated. Mean concentration values of ^3H radioactivity were calculated and converted to equivalents per ml or g based on the measured specific activity and nominal concentration of the administered test article formulation as determined by oxidation. Concentrations of total radioactivity in blood and plasma, amount (% of dose) and concentration in ocular tissue and urine samples were determined. Elimination kinetics including blood, plasma, and tissue half-lives were calculated. Urinary excretion data were also tabulated. Statistical evaluation consisted of descriptive statistical analysis. Pharmacokinetics of radioactivity were evaluated by model independent analyses pending suitability of sample assay results. Non-truncated numerical values were used in the calculations.

rabbit eyes = test: Tolerance in vivo in rabbit eyes; set-up: species or system rabbits
Method: Eyedrops containing 3.5% compound 1 were administered six times, at 1-hour intervals, to each eye of two conscious rabbits.
It was previously established that dosing rabbits with a 3% solution of Compound 1, 4 times daily, for one week caused no toxicity.

[4] = Drug penetration of organ cultured rat lenses (ESR); assay type: in vitro ADME, Sprague-Dawley rats; details: for Concentration of tempol-H in lens water: Sprague-Dawley, rat, 4 mM
Method: Method: Rat lenses were cultured as follows: Rat lenses were obtained from Sprague-Dawley rats. The lenses were incubated in 24-well cluster dishes in modified TC-199 medium and were placed in a 37° C. incubator with a 95% air/5% CO2 atmosphere. The lenses were incubated in 2 ml of culture medium, which was adjusted to 300 milliosmoles (mOsm). […] In one experiment, lenses were incubated for 4 hours and dissected into epithelial, cortical and nuclear sections before analysis.

[5] = Absorption across the cornea: aqueous humor tempol-H after topical eye drops (ESR); assay type: in vivo, New Zealand White rabbits; details: all time points (30, 60, 120 minutes) after topical 3.5% solution
Method: Groups of six New Zealand White rabbits were used in the study to evaluate the absorption of tempol-H and compound 1. The test compounds were prepared in sterile saline solutions at a concentration of 3.5% weight by volume. The animals were held in restraining boxes during instillation of eye drops, 50 μL in each eye, using a micropipette. After dosing, the eye was gently held closed for 60 seconds. The rabbits were dosed twice daily for 4 consecutive days. On the fifth day, rabbits were dosed once and then euthanized at 30 minutes post dose (2 rabbits), 60 minutes post-dose (2 rabbits) and at 120 minutes post-dose (2 rabbits). Immediately after euthanization, aqueous humor was collected from each rabbit. The aqueous concentration of tempol-H in each sample was measured using the electron spin resonance (ESR) method.

[6] = system: ARPE-19 cells that have accumulated A2E; test: Protection against A2E-mediated blue light damage in RPE cells; assay type: cell-based; details: 24 hours pre-treatment; 430+/−20 nm light; MTT and two-color fluorescence assays; FIG. 3 and FIG. 4
Method: Materials and Methods: ARPE-19 cells that have accumulated A2E in culture were exposed to 430+/−20 nm light delivered from a halogen source. This wavelength of light is relevant since (i) the excitation maximum of A2E is approximately 430 nm, and (ii) light of this wavelength reaches the RPE in vivo while light of wavelengths […] by the cornea and lens. Cell death in blue light-illuminated A2E-laden RPE was compared with and without pre-treatment (24 hours) with tempol-H. The loss of cell viability was quantified by: • 1. A calorimetric microtiter assay based on ability of healthy metabolically active cells to cleave the yellow tetrazolium salt MTT to purple formazan crystals. Cell viability was assessed 24 hours after blue light illumination. Triplicate wells were assayed in each of 2 experiments. • 2. Two-color fluorescence assay in which the nuclei of all dead cells appear red due to staining by a membrane-impermeant dye (Dead Red nuclei acid stain, Molecular Probes) with the nuclei of all cells stained blue with DAPI. Cell viability was assessed 8 hours after blue light illumination. Replicates were assayed by counting cells within 5 microscopic fields within the area of illumination in each well and 3 wells were assayed per experiment. Data are based on of 3 experiments.

[7] = Measured octanol/water partition coefficient; assay type: physicochemical
Excerpt: Esters are selected for these tests based on their calculated or measured octanol/water partition coefficient (P). Hydrophilic compounds such as tempol-H cannot penetrate the lipophilic epithelial layer of the cornea. Partition coefficients of tempol-H and esters that penetrate are as follows: […]

[8] = 30 minutes post-dose, single drop (40 ul) of 3% solution, total radioactivity

SMILES: CC1(C)CC(OC(=O)C2CC2)CC(C)(C)N1O.Cl [Compound 1, 1-hydroxy-4-cyclopropanecarbonyloxy-2,2,6,6-tetramethylpiperidine Hydrochloride]
- solubility ([1]; 0.01 M acetate buffer, pH 4.8, aqueous buffer, 0.01 M Acetate buffer at pH 4.8, room temperature): 68.6 mg/mL
- solubility ([1]; 0.01 M citrate buffer, pH 4.8, aqueous buffer, 0.01 M Citrate buffer at pH 4.8, room temperature): 71.1 mg/mL
- solubility ([1]; 0.9% sodium chloride, saline or isotonic, room temperature): 40.5 mg/mL
- solubility ([1]; water with 1% w/v glycerin, water, Water + 1% w/v glycerin, room temperature): 62.2 mg/mL
- solubility ([1]; water with 1% w/v propylene glycol, water, Water + 1% w/v propylene glycol, room temperature): 63.8 mg/mL
- solubility ([1]; water, room temperature): 74.9 mg/mL
- Conversion to metabolites (tempol-H and carboxylic acid) in aqueous humor [2]: completely converted to its metabolites
- Peak concentration, Blood [3, 8]: 240 nanogram equivalents/gram
- Peak concentration, Plasma [3, 8]: 360 nanogram equivalents/gram
- Peak tissue concentration, Aqueous [3, 8]: 5930 nanogram equivalents/gram
- Peak tissue concentration, Cornea [3, 8]: 13090 nanogram equivalents/gram
- Peak tissue concentration, Lens [3, 8]: 310 nanogram equivalents/gram
- Peak tissue concentration, Vitreous [3, 8]: 150 nanogram equivalents/gram
- Radioactivity in tissues at 24 hours post-dose ([3]; all tissues, FIG. 2): still measurable in all tissues
- Toxicity (rabbit eyes; 3% solution, 4 times daily, for one week): no toxicity
- Ocular tolerance (rabbit eyes; eyedrops 3.5%, six times at 1-hour intervals, each eye of two conscious rabbits): well tolerated and no adverse findings were noted

SMILES: CC1(C)CC(O)CC(C)(C)N1[O] [tempol]
- Share in the oxidized form in the epithelium ([4]; 4-hour incubation with tempol): about 5%
- Oxidized form tempol found in the lens ([4]; after incubation with 4.0 mM tempol): ≤ 5%

SMILES: CC1(C)CC(O)CC(C)(C)N1O [Tempol-H, 1,4-dihydroxy-2,2,6,6-tetramethylpiperidine]
- Aqueous humor levels of tempol-H [5]: below detectable limits
- Protection against the death of blue light-illuminated A2E-laden RPE [6]: dose-dependent protection; also recorded: protect
- Concentration of tempol-H in lens water ([4]; 1 h): 400 µM
- Concentration of tempol-H in lens water ([4]; 2 h): 800 µM
- Concentration of tempol-H in lens water ([4]; 4 h): 1000 µM
- P (measured) [7]: 0.5

SMILES: CCOCC(C)(C)C(=O)OC1CC(C)(C)N(O)C(C)(C)C1.Cl
- melting point: 140 to 142 °C (dec.)

SMILES: CC1(C(=O)OC2CC(C)(C)N(O)C(C)(C)C2)CC1.Cl [Example 12, 1-hydroxy-4-(1-methyl-cyclopropane)carbonyloxy-2,2,6,6-tetramethylpiperidine Hydrochloride]
- solubility ([1]; water, room temperature): ≥ 1 mg/mL
- melting point: 215 to 220 °C (dec.)

SMILES: CC1(C)CC(OC(=O)c2ccco2)CC(C)(C)N1O.Cl
- melting point: 209.4 to 210.4 °C

SMILES: CC1(C)CC(OC(=O)C2CCOC2)CC(C)(C)N1O.Cl (stereo not drawn) [Example 16, 1-hydroxy-4-(3′-tetrahydrofuran)carbonyloxy-2,2,6,6-tetramethylpiperidine Hydrochloride]
- solubility ([1]; water, room temperature): > 35 mg/mL

SMILES: CC(C)(CO)C(=O)OC1CC(C)(C)N(O)C(C)(C)C1 [Example 10, 1-hydroxy-4-(3′-hydroxy-2′,2′-dimethyl)propanecarbonyloxy-2,2,6,6-tetramethylpiperidine Hydrochloride]
- solubility ([1]; water, room temperature): > 35 mg/mL
